Experimental data as given in patent US8614230B2, “Derivatives of the aminated hydroxyquinoline class for treating cancers” (Biopharmed, priority 2007, dated 2013).
Read-outs that look alike come from different tables or passages of the source.

Assays:
[1] = tested on: A549; test: Cytotoxicity IC50 on A549 cells; format: cell-based; settings: Homo sapiens
Method: (§1) The preceding KB cells are then incubated in 6- or 96-well plates in the presence of the test compounds of the invention, dissolved in dimethyl sulfoxide (DMSO). The content of surviving cells is measured by the “colony-forming assay” test, in which the cells are redistributed at a density of 100 to 300 cells per well in 24-well plates, for a period of 8 days, and are then stained with Leishman's reagent (0.2% in methanol). The colonies of more than 50 cells are counted visually under a microscope, the survival rate being expressed on the colonies formed in the presence of the compounds of the invention relative to cell colonies not treated with said compounds. The determination of the IC50 values (concentration of compounds in the reaction medium for which 50% of the tested tumor cells survived the treatment) enables comparison of the efficacy of these compounds.
(§2) Table 4 presents the results of the IC50 (cytotoxicity) on different cell lines, according to the protocol described previously, obtained for compounds I14 and I20.

[2] = tested on: caspases 3/7; test: Activation of caspases 3/7 in HL60 cells; format: cell-based, human; settings: 48 hours
Method: (§3) In this example, in order to show the role of compounds I14 and I20 in this effect, specific products were used: DEVD for caspases 3/7, IEDT for caspases 8, and LEHD for caspases 9. Moreover, colchicine was used as reference compound that induces this activity of caspases. I14 and I20 were tested at three concentrations: 1 μM, 0.1 μM and 0.01 μM.
(§4) The experiments were performed by placing I14 and I20 in contact with HL60 cells for 48 hours, according to the standard protocol described by Margolin et al., J. Biol. Chem. (1997), 272, p. 7223, using standard commercially available diagnostic kits (Calbiochem, USA).

[3] = tested on: MCF7R; test: Cytotoxicity IC50 on MCF7R cells; format: cell-based; settings: Homo sapiens
Method: as §1, §2

[4] = tested on: HTC116; test: Cytotoxicity IC50 on HTC116 cells; format: cell-based; settings: Homo sapiens
Method: as §1, §2

[5] = tested on: KB cells; test: Cytotoxicity / cell viability on KB cells (colony-forming assay); format: cell-based, human; settings: for IC50: Homo sapiens, KB, read-out: Cytotoxicity on KB cells (IC50)
Method: Cancerous KB cells are also considered, to determine the cell viability (or survival rate). This cell viability is determined according to the teaching of Nicholson K. M. et al., British Journal of Cancer, 1999, 81, 423-430.
KB cells are human carcinoma cell lines, KB-3-1. These cells are maintained in a culture medium, “Dulbecco's modified Eagle's medium” (DMEM—Sigma), which contains 0.11 g/l of sodium pyruvate and 4.5 g/l of glucose, supplemented with 10% (v/v) fetal calf serum, penicillin (32 μg/ml) and streptomycin (50 μg/ml). The cells are cultured as monolayers and are incubated at 37° C. in a humid atmosphere (95% air/5% CO2).
as §1

[6] = tested on: caspases 8; test: Activation of caspases 8 in HL60 cells; format: cell-based, human; settings: 48 hours, 1 μM, 0.1 μM and 0.01 μM
Method: as §3, §4

[7] = tested on: K562; test: Cytotoxicity IC50 on K562 cells; format: cell-based; settings: Homo sapiens
Method: as §1, §2

[8] = tested on: HTC15; test: Cytotoxicity IC50 on HTC15 cells; format: cell-based; settings: Homo sapiens
Method: as §1, §2

[9] = tested on: caspases 9; test: Activation of caspases 9 in HL60 cells; format: cell-based, human; settings: 48 hours, 1 μM, 0.1 μM and 0.01 μM
Method: as §3, §4

[10] = tested on: PC3; test: Cytotoxicity IC50 on PC3 cells; format: cell-based; settings: Homo sapiens, PC-3
Method: as §1, §2

[11] = tested on: U87/GFP cells; test: Antiproliferative effect on U87/GFP cells (flash cytometry); format: cell-based, human
Method: For the U-87/GFP cells, the control of cell proliferation and migration in the presence of the compounds (I) of the invention is performed via a colorimetric method (MTS) and is performed according to known standard protocols. The methodologies implemented use flash cytometry (Trophos S.A., Marseilles, France). The flash cytometry technique involves fluorescence, which consists of irradiating a compound at a set wavelength and of recording the fluorescence emitted at another wavelength. This technique is performed with a flash cytometer and adapted for 96-well test plates. The excitation and emission wavelengths in the context of use of this fluorescence are located in the 485-495 nm range. The measured fluorescence expresses the amount of cells surviving after treatment with the compounds of the invention. The publications by Luby-Phelps K. et al., J. Histochemistry and Cytometry, 2003, 51, 271-274 and Modarai B. et al., Circulation, 2005, 111, 2645-2653 may be mentioned by way of reference for the above methods.
The cells of the U87/GFP lines are cultured in 96-well plates according to a standard methodology described by Bajetto et al., Neurochemistry International, 2006, 43, 31-38 in the presence of different concentrations of the compounds of the invention.
The cell proliferation is determined and quantified according to standard methods known to those skilled in the art. A 100% proliferation is attributed to the untreated cells and a percentage less than 100% is obtained when the same cells are treated with the compounds of the invention.
(§5) The cell proliferation and migration are determined by imaging using a flash cytometer (Trophos S.A., Marseilles, France), and the calculations are performed using the “Metamorph 4.6” imaging signal processing software (Molecular Devices, USA), the use of which, which is known in the field, makes it possible to determine the above two effects independently of each other.

[12] = tested on: U87/GFP cells; test: Antimigratory effect on U87/GFP cells (scratch technique); format: cell-based, human
Method: The determination of the antimigratory activity of the compounds (I) of the invention on these same cell lines, cultured in MEM medium (Minimum Essential Medium) is performed via the “scratch” technique that consists in scratching a cell lawn using a micropipette cone. By comparison with these same cells not containing the compounds of the invention, the antimigratory effect is determined. A 100% migration is attributed to the untreated cells, whereas, as a function of the concentration of the compounds (I) of the invention, total stoppage of migration is determined by observation of the “scratch” remaining unfilled by the cell migration, by means of computer software.
as §5

[13] = tested on: HepG2; test: Cytotoxicity IC50 on HepG2 cells; format: cell-based; settings: Homo sapiens
Method: as §1, §2

[14] = tested on: SF268; test: Cytotoxicity IC50 on SF268 cells; format: cell-based; settings: Homo sapiens, SF-268
Method: as §1, §2

[15] = tested on: HL60; test: Cytotoxicity IC50 on HL60 cells; format: cell-based; settings: Homo sapiens, HL-60
Method: as §1, §2

[16] = tested on: OV3; test: Cytotoxicity IC50 on OV3 cells; format: cell-based; settings: Homo sapiens
Method: as §1, §2

[17] = tested on: MCF7; test: Cytotoxicity IC50 on MCF7 cells; format: cell-based; settings: Homo sapiens
Method: as §1, §2

With `Cc1ccc(CN(Cc2ccc(O)c3ncccc23)c2ccc(O)c3ncccc23)cc1` [I14, 5-(((8-hydroxyquinolin-5-yl)(4-methylbenzyl)amino)methyl)quinolin-8-ol] the IC50 [1] was 4.3 ± 0.1 nM, the “effect on the activation of caspases 3/7” value ([2]; 0.01 μM) was “neither 114 nor 120 has an effect” and the “effect on the activation of caspases 3/7” value ([2]; 1 μM and 0.1 μM) was “strong effect”. For the same molecule, the IC50 [3] was 37.3 ± 28 nM, the IC50 [4] was 3.2 ± 1.2 nM and the IC50 ([5]; first value of two experiments performed in parallel) was 2.6 nM. The IC50 ([5]; second value of two experiments performed in parallel) was 1.4 nM, the “Cytotoxicity on KB cells (percentage inhibition of cell viability)” value ([5]; at 1 μM, relative to reference without compound) was 90% at 1 μM and the “effect on the activation of caspases 8” value [6] was “no effect”. The IC50 [7] was 40.8 ± 22 nM, the IC50 [8] was 6 ± 7.3 nM and the “effect on the activation of caspases 9” value [9] was “no effect”. It also gave an IC50 [10] of 343 ± 125 nM, an inhibition at 0.5 µM ([11]; Homo sapiens, at 0.5 μM, read-out: Antiproliferative effect on U87/GFP cells: percentage inhibition) of 65% and an IC50 ([11]; concentration giving 65% inhibition of proliferation) of 500 nM. For the same molecule, the inhibition at 0.5 µM ([12]; Homo sapiens, at 0.5 μM, read-out: Antimigratory effect on U87/GFP cells: percentage inhibition) was 40%, the IC50 ([12]; concentration giving 40% inhibition of migration) was 500 nM and the IC50 [13] was 52.1 ± 14.5 nM. The IC50 [14] was 178 ± 83 nM, the IC50 [15] was 32.7 ± 6.6 nM and the IC50 [16] was 8 ± 0.4 nM. The IC50 [17] was 5.4 ± 0.9 nM.
